Active and inactive are the calls of the source. No cut-off for these calls is given here.
Columns and labels:
[1] = test system: Neutrophil; assay: Inhibition of fMLF/CB-induced human Neutrophil activation assessed as reduction in elastase release using MeO-Suc-Ala-Ala-Pro-Val-pnitroanilide as substrate incubated for 5 mins; format: functional, cell-based
[2] = test system: Neutrophil; assay: Inhibition of fMLF/CB-induced human Neutrophil activation assessed as reduction in superoxide anion generation preincubated with compound for 2 mins prior to CB induction for 3 mins followed by fMLF addition by spectrophotometric analysis; format: functional, cell-based
[3] = test system: Neutrophil; assay: Inhibition of fMLF/CB-induced human Neutrophil activation assessed as reduction in elastase release at 10 uM using MeO-Suc-Ala-Ala-Pro-Val-pnitroanilide as substrate incubated for 5 mins relative to control; format: functional
[4] = target: Phosphodiesterase 4 (Homo sapiens) (UniProt P27815+Q08499+Q07343+Q08493); assay: Inhibition of PDE4 (unknown origin) at 50 uM incubated for 1 hr by scintillation proximity assay relative to control; format: protein assay
[5] = test system: Neutrophil; assay: Inhibition of fMLF/CB-induced human Neutrophil activation assessed as reduction in superoxide anion generation at 10 uM preincubated with compound for 2 mins prior to CB induction for 3 mins followed by fMLF addition by spectrophotometric analysis relative to control; format: functional; settings: 5 min
[6] = test system: Neutrophil; assay: Inhibition of fMLF/CB-induced human Neutrophil activation assessed as reduction in superoxide anion generation at 1 to 1000 nM preincubated with compound for 2 mins prior to CB induction for 3 mins followed by fMLF addition in presence of KT5720 by spectrophotometric analysis; format: functional, cell-based; settings: dose 1-1000 nM, time 5.0 min
[7] = AUC (0 to infinity) in C57BL/6 mouse at 5 mg/kg, iv measured upto 360 mins by HPLC analysis; format: ADME, organism-based; settings: in vivo
[8] = Apparent volume of distribution in C57BL/6 mouse at 5 mg/kg, iv measured upto 360 mins by HPLC analysis; format: ADME, organism-based; settings: in vivo, 6 h
[9] = target: 3',5'-cyclic-AMP phosphodiesterase 4B (Homo sapiens) (UniProt Q07343); assay: Inhibition of human recombinant PDE4B1 at 10 uM using […] as substrate preincubated with compound for 15 mins followed by substrate addition and measured after 30 mins by spectrofluorimetric analysis relative to control; settings: time 45.0 min
3',5'-cyclic-AMP phosphodiesterase 4B (Homo sapiens), sequence (Q07343 whole entry): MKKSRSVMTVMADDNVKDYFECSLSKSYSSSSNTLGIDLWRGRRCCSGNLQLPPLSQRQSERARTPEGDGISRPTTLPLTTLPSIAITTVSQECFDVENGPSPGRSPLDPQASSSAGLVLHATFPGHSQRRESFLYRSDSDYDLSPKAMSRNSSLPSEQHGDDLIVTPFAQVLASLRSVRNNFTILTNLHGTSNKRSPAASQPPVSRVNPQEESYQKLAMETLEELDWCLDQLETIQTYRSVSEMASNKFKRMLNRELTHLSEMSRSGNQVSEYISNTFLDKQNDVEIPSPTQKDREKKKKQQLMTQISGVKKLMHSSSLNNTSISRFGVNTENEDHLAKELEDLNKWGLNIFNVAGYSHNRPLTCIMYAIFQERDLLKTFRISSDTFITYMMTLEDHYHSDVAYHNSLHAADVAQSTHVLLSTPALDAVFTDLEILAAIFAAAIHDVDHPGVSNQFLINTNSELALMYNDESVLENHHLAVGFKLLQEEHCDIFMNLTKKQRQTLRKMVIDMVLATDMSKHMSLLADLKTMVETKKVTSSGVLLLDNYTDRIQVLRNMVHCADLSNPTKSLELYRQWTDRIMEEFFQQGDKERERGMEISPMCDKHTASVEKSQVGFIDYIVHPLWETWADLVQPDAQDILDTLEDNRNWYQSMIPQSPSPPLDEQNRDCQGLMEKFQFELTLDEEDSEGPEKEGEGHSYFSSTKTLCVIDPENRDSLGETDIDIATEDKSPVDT

[10] = Clearance in C57BL/6 mouse at 5 mg/kg, iv measured upto 360 mins by HPLC analysis; format: ADME, organism-based; settings: in vivo
[11] = Half life in C57BL/6 mouse at 5 mg/kg, iv measured upto 360 mins by HPLC analysis; format: ADME, organism-based; settings: in vivo
[12] = target: 3',5'-cyclic-AMP phosphodiesterase 4D (Homo sapiens) (UniProt Q08499); assay: Inhibition of human recombinant PDE4D2 at 10 uM using […] as substrate preincubated with compound for 15 mins followed by substrate addition and measured after 30 mins by spectrofluorimetric analysis relative to control; settings: time 45.0 min
3',5'-cyclic-AMP phosphodiesterase 4D (Homo sapiens), sequence (Q08499 whole entry): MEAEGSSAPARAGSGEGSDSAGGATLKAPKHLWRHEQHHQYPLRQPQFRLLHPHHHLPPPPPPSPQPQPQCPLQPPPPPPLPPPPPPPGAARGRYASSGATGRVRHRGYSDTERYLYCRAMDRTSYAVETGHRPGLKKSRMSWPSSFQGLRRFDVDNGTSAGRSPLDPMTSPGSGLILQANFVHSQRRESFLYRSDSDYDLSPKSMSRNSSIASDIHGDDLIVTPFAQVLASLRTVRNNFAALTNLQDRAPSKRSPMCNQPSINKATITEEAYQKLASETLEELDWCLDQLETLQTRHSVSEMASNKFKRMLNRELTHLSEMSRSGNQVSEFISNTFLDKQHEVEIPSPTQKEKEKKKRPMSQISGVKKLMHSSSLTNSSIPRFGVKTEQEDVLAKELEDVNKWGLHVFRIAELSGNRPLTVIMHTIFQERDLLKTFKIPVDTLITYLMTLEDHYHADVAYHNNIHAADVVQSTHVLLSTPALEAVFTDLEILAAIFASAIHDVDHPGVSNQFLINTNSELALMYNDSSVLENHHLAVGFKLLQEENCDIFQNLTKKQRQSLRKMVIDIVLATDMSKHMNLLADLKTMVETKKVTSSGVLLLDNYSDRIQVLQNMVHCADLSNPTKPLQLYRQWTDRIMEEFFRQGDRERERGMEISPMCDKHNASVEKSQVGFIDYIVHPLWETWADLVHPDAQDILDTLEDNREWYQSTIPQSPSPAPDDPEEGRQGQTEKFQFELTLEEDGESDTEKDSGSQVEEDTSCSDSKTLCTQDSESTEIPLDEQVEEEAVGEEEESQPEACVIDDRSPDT

Row | Compound | IC50 [1] | IC50 [2] | inhibition at 10 µM [3] | inhibition [4] | inhibition at 10 µM [5] | inhibition [6] | AUC(0-inf) [7] | Vz [8] | inhibition [9] | clearance [10] | half-life [11] | inhibition [12]
1 | OCc1ccc(-c2nn(Cc3ccccc3)c3ccccc23)o1 | > 10 µM | > 10000 nM | -2.64% | 60% | 12.9% | – | – | – | – | – | – | –
2 | Fc1ccccc1Cn1nc(-c2ccco2)cc1-c1ccccc1 | > 10 µM | 9.06 nM | 37% | – | 66.5% | Active | 962 ng·h/mL | 225 mL | 83% | 1.97 mL/min | 79.2 min | 85%

From ChEMBL document CHEMBL5634155, “Design and synthesis of pyrazole derivatives against neutrophilic inflammation” (Eur J Med Chem, 2023)
